Experimental data as given in PubChem BioAssay (NCI).
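Dose response: 5 concentrations. Exposure: 48 h. Format: 96-well plates. Endpoint: linear interpolation; highest concentration if not reached. The concentration for full growth arrest is given as TGI.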

What was measured:
Test in all cases: growth of human tumour cells (NCI), 48 h
ACHN renal = system: ACHN renal
CCRF-CEM leukemia = system: CCRF-CEM leukemia
K-562 leukemia = system: K-562 leukemia
KM12 colon = system: KM12 colon
LOX IMVI melanoma = system: LOX IMVI melanoma
M19-MEL melanoma = system: M19-MEL melanoma
MOLT-4 leukemia = system: MOLT-4 leukemia
NCI-H23 lung = system: NCI-H23 lung
OVCAR-5 ovarian = system: OVCAR-5 ovarian
SF-268 CNS = system: SF-268 CNS
SF-295 CNS = system: SF-295 CNS
SK-MEL-2 melanoma = system: SK-MEL-2 melanoma
SK-MEL-28 melanoma = system: SK-MEL-28 melanoma
SNB-19 CNS = system: SNB-19 CNS
U251 CNS = system: U251 CNS
UACC-257 melanoma = system: UACC-257 melanoma
BT-549 breast = system: BT-549 breast
MDA-N = system: MDA-N
PC-3 prostate = system: PC-3 prostate
T-47D breast = system: T-47D breast

SMILES	TGI (ACHN renal)	TGI (CCRF-CEM leukemia)	TGI (K-562 leukemia)	TGI (KM12 colon)	TGI (LOX IMVI melanoma)	TGI (M19-MEL melanoma)	TGI (MOLT-4 leukemia)	TGI (NCI-H23 lung)	TGI (OVCAR-5 ovarian)	TGI (SF-268 CNS)	TGI (SF-295 CNS)	TGI (SK-MEL-2 melanoma)	TGI (SK-MEL-28 melanoma)	TGI (SNB-19 CNS)	TGI (U251 CNS)	TGI (UACC-257 melanoma)	TGI (BT-549 breast)	TGI (MDA-N)	TGI (PC-3 prostate)	TGI (T-47D breast)
Cc1ccc(NCC(=O)N2CC(=O)Nc3ccccc32)c(C)c1	> 100 µM	> 100 µM	> 100 µM	> 100 µM	> 100 µM	> 100 µM	> 100 µM	> 100 µM	> 100 µM	> 100 µM	> 100 µM	> 100 µM	> 100 µM	> 100 µM	> 100 µM	> 100 µM	–	–	–	–
CS(=O)(=O)OC1CCC2(C#N)CCC1C2=O (centres undefined)	> 100 µM	> 100 µM	> 100 µM	> 100 µM	> 100 µM	> 100 µM	> 100 µM	> 100 µM	> 100 µM	> 100 µM	> 100 µM	> 100 µM	> 100 µM	> 100 µM	> 100 µM	> 100 µM	–	–	–	–
CC(C)=CC1C[C@H](C2CC=C3C2(C)CCC2[C@@]3(C)C(=O)CC3[C@]2(C)C=CC(=O)[C@]3(C)CO)CO1 (some centres undefined)	30.7 µM	8.71 µM	31.3 µM	19.9 µM	9.45 µM	16.7 µM	8.43 µM	19.1 µM	37.8 µM	23.1 µM	32.1 µM	14.8 µM	19 µM	42.9 µM	21.7 µM	30.8 µM	–	–	–	–
O=c1cc(-c2ccccc2)c2ccccc2[nH]1	> 100 µM	> 100 µM	> 100 µM	> 100 µM	> 100 µM	> 100 µM	> 100 µM	> 100 µM	> 100 µM	> 100 µM	> 100 µM	> 100 µM	> 100 µM	–	> 100 µM	> 100 µM	–	–	–	–
Cc1c2ccncc2c(C)c2c1[nH]c1ccc(OC(C)C)cc12	2.56 µM	7.68 µM	4.4 µM	2.86 µM	2.51 µM	3.42 µM	2.97 µM	2.93 µM	2.87 µM	3.07 µM	2.73 µM	3.22 µM	3.21 µM	3.12 µM	2.94 µM	3.3 µM	–	–	–	–
O=[N+]([O-])C(=C(Nc1ccccc1)Nc1ccccc1)/C(Cl)=C(\Cl)[N+](=O)[O-]	7.12 µM	92.5 µM	> 100 µM	14.8 µM	11.4 µM	–	17.7 µM	11.2 µM	22.7 µM	14.6 µM	26.1 µM	31.8 µM	16.3 µM	26.8 µM	18.1 µM	19.7 µM	13.7 µM	10.5 µM	20.9 µM	7.43 µM
Cc1cc2c(cc1Cl)SC(NNC(=O)c1ccco1)=NS2(=O)=O	> 10 µM	> 10 µM	> 10 µM	> 10 µM	> 10 µM	–	> 10 µM	> 10 µM	> 10 µM	> 10 µM	> 10 µM	> 10 µM	> 10 µM	> 10 µM	> 10 µM	> 10 µM	> 10 µM	> 10 µM	> 10 µM	> 10 µM
CC[C@H](CCCC[C@H]1CC[C@@H]2CC(=O)C[C@H]12)OC	> 100 µM	> 100 µM	55.2 µM	> 100 µM	> 100 µM	–	> 100 µM	> 100 µM	> 100 µM	> 100 µM	> 100 µM	> 100 µM	> 100 µM	> 100 µM	> 100 µM	> 100 µM	> 100 µM	> 100 µM	> 100 µM	> 100 µM
Cn1c(=O)c2c(nc3n(CCCCl)c(=O)ccn23)n(C)c1=O	> 100 µM	> 100 µM	> 100 µM	> 100 µM	> 100 µM	–	> 100 µM	> 100 µM	> 100 µM	> 100 µM	> 100 µM	> 100 µM	> 100 µM	> 100 µM	> 100 µM	> 100 µM	> 100 µM	> 100 µM	> 100 µM	> 100 µM
C[C@]12CC[C@@H]3c4ccc(O)cc4CC[C@H]3[C@@H]1CC[C@@H]2OP(=O)(O)O	> 100 µM	> 100 µM	> 100 µM	> 100 µM	> 100 µM	–	> 100 µM	> 100 µM	> 100 µM	> 100 µM	> 100 µM	> 100 µM	> 100 µM	> 100 µM	> 100 µM	> 100 µM	> 100 µM	> 100 µM	> 100 µM	> 100 µM
